# According to patent US20260176284A1, “Compounds with Anti-KRAS Mutated Tumor Activity” (Trasveda Ltd., priority 2022, published 2026):
# pIC50: −log10 of the molar value.
# Experiments:
# [1] = Mouse pharmacokinetics (IV and PO); type: in vivo; details: 10 mg/kg, male CD-1 mice, PO (gavage), 1 mg/mL at 10 mL/kg, plasma
# Method: The pharmacokinetic properties of the compounds of the present invention were evaluated through a mouse pharmacokinetic experiment.
# Male CD-1 mice, aged 6-8 weeks old, were purchased from Zhejiang Vital River Laboratory Animal Co., Ltd.
# IV administration group: The compound was formulated into a sodium acetate buffer solution (10 mM sodium acetate solution, adjusted to pH 4.0 with acetic acid) containing 20% Captisol (sulfobutyl β-cyclodextrin) so that the final concentration of each compound was 0.6 mg/mL. The drug formulation was injected into the tail vein of CD-1 mice at an injection volume of 5 mL/kg. After administration, blood samples were collected from the submandibular vein or by other appropriate methods at 5 min, 15 min, 30 min, 1 h, 2 h, 4 h, 6 h, 8 h, and 24 h. The blood samples were centrifuged at a low temperature for 6 minutes, and the plasma was collected and stored at −80° C. for testing. The PO administration group formulated the compound into a solvent of 0.5% Tween 80+99.5% (0.5% MC (400 cp)) or 5% DMSO+95% (0.5% MC (400 cp)) so that the final concentration of each compound was 1 mg/mL. The drug formulation was administered to CD-1 mice by gavage at a volume of 10 mL/kg. After administration, blood samples were collected from the submandibular vein or by other appropriate methods at 15 min, 30 min, 1 h, 2 h, 4 h, 6 h, 8 h, and 24 h. The blood samples were centrifuged at a low temperature for 6 minutes, and the plasma was collected and stored at −80° C. for testing.
# 10 μL of the plasma sample was taken, and 200 μL of methanol containing an internal standard was added as a precipitating agent to precipitate plasma proteins and extract the compounds to be tested in the plasma. After centrifugation at a low temperature, 10 μL of the supernatant was injected, and the drug blood concentration was analyzed by LC-MS/MS. The pharmacokinetic parameters were calculated using Winnonlin based on the drug concentration data at different time points.
# [2] = tested on: human pancreatic cancer cells HPAC (carrying KRas G12D mutant protein); experiment: In vivo pharmacodynamics, subcutaneous xenograft of human pancreatic cancer cells HPAC; details: NOD/SCID mice, 50 mpk, PO; for Tumor volume (mm3) (Day 20): BID × 21; for TGI (%): BID × 21, Day 20
# Method: The following materials were used in this experiment: NOD/SCID mice, 6-8 weeks old, female, Jiangsu Ji Cai Yao Kang Biotechnology Co., Ltd.; HPAC cells (carrying KRas G12D mutant protein, ATCC); Captisol (Wuhan Fengyao Tonghui Chemical Products Co., Ltd., Cas #182410-00-0); Sodium acetate (aladdin); MC (sigma, 9004-67-5).
# The experiment was carried out as follows: Female NOD/SCID mice aged 6-8 weeks were subcutaneously inoculated with 1-10^7 HPAC cells on the right posterior side of the back, with an inoculation volume of 0.1 mL. When the tumors grew to an average volume of 150 mm^3, the mice were randomly grouped for administration according to the tumor size and body weight. The day of administration was regarded as day 0. The administration was carried out once a day. The test compound was administered by tail vein injection or gavage, with 5 mice in each group at a dose of 10 mg/kg. The control group was administered with an equal volume of the solvent control by tail vein injection or gavage.
# During the experiment, the tumor volume and body weight were measured twice a week. The formula for calculating the tumor volume was: Tumor volume (mm^3)=0.5×(tumor major axis×tumor minor axis^2). The average tumor inhibition rate TGI %=[(average tumor volume of the control group−average initial tumor volume of the control group)−(average tumor volume of the administration group−average initial tumor volume of the administration group)]/(average tumor volume of the control group−average initial tumor volume of the control group).
# [3] = tested on: KRAS G12D mutated AGS human gastric adenocarcinoma cells; experiment: Proliferation inhibition of KRAS G12D mutant AGS cells, another experiment with similar protocol (includes MRTX1133); type: cell-based; details: Homo sapiens
# Method: In another experiment, using a protocol similar to the one described above, the inhibitory activity of some representative compounds of the present invention against KRAS G12D mutated AGS human gastric adenocarcinoma cells was determined.
# The synthesis of compound MRTX1133 was performed according to the method described in J. Med. Chem. 2022, 65, 4, 3123-3133.
# [4] = tested on: KRAS-G12D mutated human colon carcinoma cells GP2d; experiment: Antitumor effect, subcutaneous xenograft of KRAS-G12D mutated human colon carcinoma cells GP2d; type: in vivo; details: BALB/c nude mice, 10 mg/kg, gavage, twice a day; for TGI (%): Day 21
# Method: GP2d cells were purchased from Nanjing Kebai Biotechnology Co., Ltd. BALB/c nude mice, female, were purchased from Jiangsu GemPharmatech LLC. GP2d cells were cultured in culture medium containing DMEM and 10% FBS. The cells in the logarithmic growth phase were collected and resuspended in PBS to an appropriate concentration for subcutaneous tumor inoculation in mice. The experimental mice were subcutaneously inoculated on the right posterior side of the back. The inoculation dose of GP2d cells was 1×10^7 cells per mouse, and the cells were resuspended in a 1:1 mixture of PBS and Matrigel (the inoculation volume was 0.1 mL). When the average tumor volume grew to 150 mm^3, the mice were randomly grouped for administration according to the tumor size and body weight. Administration was started immediately after grouping, and the day of administration was regarded as day 0. The administration was carried out twice a day by gavage, at a dose of 10 mg/kg or a solvent control (0.5% Tween 80+99.5% of (0.5% MC (400 cp))). During the experiment, the body weight of the mice and the size of the tumors were measured twice a week.
# The formula for calculating the tumor size: Tumor volume (mm^3)=0.5×(long diameter of tumor×(short diameter of tumor)^2).
# Relative tumor inhibition rate TGI (%): TGI %=[1−(average tumor volume at the end of administration of the treatment group−average tumor volume at the beginning of administration of the treatment group)/(average tumor volume at the end of administration of the vehicle control group −average tumor volume at the beginning of administration of the vehicle control group)]×100%.
SMILES,AUC(0-inf) [1],AUC(0-t) [1],half-life [1],Tumor volume (mm3) (Day 20) [2],TGI (%) [2],pIC50 [3],Tumor volume (mm3) (Day 21) [4],TGI (%) [4]
"C#Cc1c(F)ccc2cc(O)cc(-c3c(F)cc4c(N5CC6CCC(C5)N6)nc(OC[C@]5(C)CN(C)CC[C@@H]5C(F)F)nc4c3F)c12 (atropisomer, axis not shown; (Ra)) [Example 46-3, (Ra)-4-(4-((1R,5S)-3,8-diazabicyclo[3.2.1]octan-3-yl)-2-(((3S,4S)-4-(difluoromethyl)-1,3-dimethylpiperidin-3-yl)methoxy)-6,8-difluoroquinazolin-7-yl)-5-ethynyl-6-fluoronaphthalen-2-ol]",414 ng·h/mL,384 ng·h/mL,645 min,135 mm3,102%,8.15,,
"C#Cc1c(F)ccc2cc(O)cc(-c3c(F)cc4c(N5CC6CCC(C5)N6)nc(OC[C@]5(C)CN(C)CC/C5=C\F)nc4c3F)c12 (atropisomer, axis not shown; (Ra)) [Example 77, (Ra)-4-(4-((1R,5S)-3,8-diazabicyclo[3.2.1]octan-3-yl)-6,8-difluoro-2-(((S,E) 4-(fluoromethylene)-1,3-dimethylpiperidin-3-yl)methoxy)quinazolin-7-yl)-5-ethynyl-6-fluoronaphthalen-2-ol]",,,,255 mm3,83%,8.40,,
"CN1CC/C(=C\F)[C@](C)(COc2nc(N3CC4CCC(C3)N4)c3cc(Cl)c(-c4cccc5sc(N)c(C#N)c45)c(F)c3n2)C1 (single isomer, unassigned) [Example 313-1]",,,,,,,256 mm3,88%
"[2H]C([2H])([2H])N1CC[C@H](C(F)F)[C@](C)(C([2H])([2H])Oc2nc(N3CC4CCC(C3)N4)c3cc(Cl)c(-c4cccc5sc(N)c(C#N)c45)c(F)c3n2)C1 (single isomer, unassigned) [Example 315-1]",,,,,,,325 mm3,80%
"CN1CC[C@H](C(F)F)[C@](C)(COc2nc(N3CC4CCC(C3)N4)c3cc(Cl)c(-c4c(F)ccc5sc(N)c(C#N)c45)c(F)c3n2)C1 (single isomer, unassigned) [Example 325-1]",,,,,,8.70,228 mm3,91%
"C#Cc1c(F)ccc2cc(O)cc(-c3ncc4c(N5C[C@H]6CC[C@@H](C5)N6)nc(OC[C@]5(C)CN(C)CC[C@@H]5C(F)F)nc4c3F)c12 [Example 105, 4-(4-((1R,5S)-3,8-diazabicyclo[3.2.1]octan-3-yl)-2-(((3S,4S)-4-(difluoromethyl)-1,3-dimethylpiperidin-3-yl)methoxy)-8-fluoropyrido[4,3-d]pyrimidin-7-yl)-5-ethynyl-6-fluoronaphthalen-2-ol]",,,,122 mm3,104%,8.22,,
"C#Cc1c(F)ccc2cc(O)cc(-c3nc(OC)c4c(N5C[C@H]6CC[C@@H](C5)N6)nc(OC[C@]5(C)CN(C)CC[C@@H]5C(F)F)nc4c3F)c12 [Example 261, 4-(4-((1R,5S)-3,8-diazabicyclo[3.2.1]octan-3-yl)-2-(((3S,4S)-4-(difluoromethyl)-1,3-dimethylpiperidin-3-yl)methoxy)-8-fluoro-5-methoxypyrido[4,3-d]pyrimidin-7-yl)-5-ethynyl-6-fluoronaphthalen-2-ol]",,,,117 mm3,105%,8.70,,
"C#Cc1c(F)ccc2cc(O)cc(-c3nc(OC)c4c(N5C[C@H]6CC[C@@H](C5)N6)nc(OC[C@]5(C)CN(C)CC/C5=C\F)nc4c3F)c12 [Example 265, 4-(4-((1R,5S)-3,8-diazabicyclo[3.2.1]octan-3-yl)-8-fluoro-2-(((S,E)-4-(fluoromethylene)-1,3-dimethylpiperidin-3-yl)methoxy)-5-methoxypyrido[4,3-d]pyrimidin-7-yl)-5-ethynyl-6-fluoronaphthalen-2-ol]",,,,113 mm3,106%,8.70,,
C#Cc1c(F)ccc2cc(O)cc(-c3nc(C#C)c4c(N5CC6CCC(C5)N6)nc(OC[C@]5(C)CN(C)CC/C5=C\F)nc4c3F)c12 [Example 332],,,,,,9.00,419 mm3,70%
